Experimental data published in the supplement of paper PMC10307832.

Legend:
Test in all cases: relative viability (nuclei count vs DMSO), 5 days (fraction); higher = more cells survive
[1] = compound: CCN1C(=O)C2=CC(=C(N=C2N(C1=O)C3CC3)N)C(=O)N + CC(=O)c1c(C)c2cnc(Nc3ccc(N4CCNCC4)cn3)nc2n(C2CCCC2)c1=O [Palbociclib] (partner 0.5 µM)
In short: (§1)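 Lung cancer cell lines, seeded in 1536-well plates, were treated the following day by pin tool with a single drug or with five library-drug doses (not always all listed) in √10 steps on top of a fixed anchor-drug dose. Cells were fixed and nuclei stained in one step after 5 days, and nuclei were counted. Relative viability is the nuclei count for treated wells divided by that for vehicle wells, reported as medians of duplicate plates.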

[2] = compound: CCN1C(=O)C2=CC(=C(N=C2N(C1=O)C3CC3)N)C(=O)N + CC(C)C[C@H](NC(=O)[C@H](Cc1ccccc1)NC(=O)c1cnccn1)B(O)O [Bortezomib] (partner 0.002 µM)
In short: as §1

[3] = compound: CCN1C(=O)C2=CC(=C(N=C2N(C1=O)C3CC3)N)C(=O)N + COc1cccc2cc(-c3nc([C@H]4CC[C@H](C(=O)O)CC4)n4ncnc(N)c34)[nH]c12 [OSI-027] (partner 0.5 µM)
In short: as §1

[4] = compound: CCN1C(=O)C2=CC(=C(N=C2N(C1=O)C3CC3)N)C(=O)N + Cc1cc(Nc2cc(N3CCN(C)CC3)nc(Sc3ccc(NC(=O)C4CC4)cc3)n2)n[nH]1 [Tozasertib] (partner 0.1 µM)
In short: as §1

[5] = compound: CCN1C(=O)C2=CC(=C(N=C2N(C1=O)C3CC3)N)C(=O)N + Nc1nc2[nH]cc(CCc3ccc(C(=O)N[C@@H](CCC(=O)O)C(=O)O)cc3)c2c(=O)[nH]1 [Pemetrexed] (partner 0.2 µM)
In short: as §1

Cell Line	relative viability ([1]; first compound 0.253 µM)	relative viability ([1]; first compound 0.8 µM)	relative viability ([1]; first compound 2.53 µM)	relative viability ([1]; first compound 8 µM)	relative viability ([2]; first compound 0.253 µM)	relative viability ([2]; first compound 0.8 µM)	relative viability ([2]; first compound 2.53 µM)	relative viability ([2]; first compound 8 µM)	relative viability ([3]; first compound 0.253 µM)	relative viability ([3]; first compound 0.8 µM)	relative viability ([3]; first compound 2.53 µM)	relative viability ([3]; first compound 8 µM)	relative viability ([4]; first compound 0.253 µM)	relative viability ([4]; first compound 0.8 µM)	relative viability ([4]; first compound 2.53 µM)	relative viability ([4]; first compound 8 µM)	relative viability ([5]; first compound 0.253 µM)	relative viability ([5]; first compound 0.8 µM)	relative viability ([5]; first compound 2.53 µM)	relative viability ([5]; first compound 8 µM)
LOU-NH91	0.542	0.554	0.516	0.513	0.565	0.502	0.516	0.496	0.637	0.66	0.766	0.692	0.603	0.649	0.635	0.683	0.369	0.377	0.383	0.379
LU99A	0.461	0.448	0.419	0.409	1.25	1.16	1.06	1.19	0.34	0.294	0.284	0.288	0.307	0.277	0.252	0.238	0.174	0.187	0.168	0.184
NCI-H1650	0.315	0.364	0.346	0.313	0.192	0.185	0.182	0.187	0.577	0.444	0.629	0.544	0.394	0.404	0.38	0.342	0.38	0.324	0.333	0.382
HOP-62	0.516	0.428	0.415	0.474	0.914	0.75	0.754	0.733	0.96	0.919	0.795	0.883	0.367	0.353	0.382	0.371	0.278	0.353	0.303	0.345
SK-LU-1	0.389	0.45	0.371	0.412		1.36	1.29	1.29	0.414	0.381	0.353	0.369	0.349	0.305	0.324	0.306	0.933	1.06	1	1.04
LCLC-103H	0.446	0.481	0.479	0.456	1.07	0.981	1.05	1.05	0.411	0.475	0.49	0.399	0.468	0.487	0.472	0.48	0.46	0.461	0.46	0.453
NCI-H1734	0.346	0.328	0.363	0.36	0.953	0.999	0.918	1	0.734	0.554	0.531	0.596	0.373	0.278	0.233	0.25	0.432	0.392	0.405	0.423
EKVX	0.63	0.471	0.401	0.348	1.18	1.14	1.07	0.901	0.803	0.751	0.675	0.498	0.359	0.494	0.358	0.384	0.397	0.414	0.282	0.351
HARA	0.265	0.32	0.195	0.229	1.18	1.12	1.11	1.15	0.415	0.576	0.473	0.54	0.12	0.129	0.0936	0.111	0.223	0.232	0.246	0.216
EMC-BAC-2	0.543		0.47	0.468	1.12	1.04	0.9	1.06	0.474	0.336	0.33	0.379	0.319	0.249	0.255	0.304	0.461		0.403	0.431
PC-3 [JPC-3]	0.545		0.559	0.52	0.874	0.799	0.914	0.801	0.746	0.85	0.735	0.791	0.911	0.872	0.925	0.869	1.1		1.26	1.2
NCI-H520	0.24	0.228	0.185	0.203	0.574	0.574	0.743	0.612	0.296	0.315	0.346	0.304	0.426	0.397	0.382	0.451	0.635	0.64	0.703	0.657
NCI-H1755	0.443	0.453	0.436	0.44	0.949	0.966	0.921	0.948	0.744	0.749	0.703	0.72	0.567	0.515	0.514	0.528	0.525	0.412	0.418	0.471
NCI-H2087	0.216	0.238	0.275	0.236	0.837	0.845	0.781	0.985	0.437	0.671	0.636	0.55	0.258	0.249	0.214	0.266	0.676	0.629	0.677	0.608
NCI-H2023	0.438	0.39	0.313	0.382	0.829	0.915	0.95	0.984	0.449	0.365	0.386	0.34	0.402	0.32	0.241	0.233	0.198	0.182	0.222	0.247
CAL-12T	0.452	0.448	0.475	0.418	1.11		1.09	1.08	0.689	0.478	0.543	0.512	0.271	0.269	0.282	0.223	1.02	1.31	1.06	1.15

Cell Line	relative viability ([1]; first compound 0.253 µM)	relative viability ([1]; first compound 0.8 µM)	relative viability ([1]; first compound 2.53 µM)	relative viability ([1]; first compound 8 µM)	relative viability ([2]; first compound 0.253 µM)	relative viability ([2]; first compound 0.8 µM)	relative viability ([2]; first compound 2.53 µM)	relative viability ([2]; first compound 8 µM)	relative viability ([3]; first compound 0.253 µM)	relative viability ([3]; first compound 0.8 µM)	relative viability ([3]; first compound 2.53 µM)	relative viability ([3]; first compound 8 µM)	relative viability ([4]; first compound 0.253 µM)	relative viability ([4]; first compound 0.8 µM)	relative viability ([4]; first compound 2.53 µM)	relative viability ([4]; first compound 8 µM)	relative viability ([5]; first compound 0.253 µM)	relative viability ([5]; first compound 0.8 µM)	relative viability ([5]; first compound 2.53 µM)	relative viability ([5]; first compound 8 µM)
NCI-H2085	0.479	0.446	0.441	0.445	0.971	1.1	1.04	0.996	0.728	0.691	0.738	0.684	0.85	0.726	0.867	0.613	0.914	0.847	0.987	0.851
NCI-H661	0.391	0.389	0.39	0.4	0.809	0.9	0.793	0.942	0.773	0.742	0.681	0.677	0.339	0.356	0.354	0.335	0.918	0.905	0.935	0.886
LCLC-97TM1	0.272	0.244	0.294	0.181	0.873	0.326	1.27	0.625	0.466	0.371	0.441	0.56	0.218	0.166	0.204	0.25	0.227	0.177	0.173	0.172
NCI-H2126	0.332	0.345	0.349	0.364	1.14	1.14	1.16	1.05	0.598	0.541	0.819	0.747	0.86	0.798	0.801	0.828	0.682	0.671	0.674	0.674
201T	0.392	0.348	0.38	0.369	1.1	1.07	1.09	1.05	0.431	0.729	0.761	0.667	1.01	0.993	0.973	1.04	0.328	0.309	0.34	0.313
NCI-H1915	0.531	0.508	0.493	0.526	0.968	0.93	0.955	0.955	0.636	0.638	0.6	0.679	0.451	0.33	0.393	0.416	0.5	0.507	0.493	0.509
BEN	0.448	0.478	0.411	0.456	0.951	0.68	1.1	0.697	0.297	0.321	0.273	0.295	0.629	0.528	0.443	0.525	0.896	0.842	0.929	0.699
NCI-H2347	0.458	0.489	0.445	0.492	0.982	0.933	1.19	0.778	0.481	0.344	0.384	0.346	0.666	0.61	0.572	0.482	0.458	0.442	0.421	0.447
H3255	0.321	0.335	0.327	0.279	0.866	0.565	0.934	0.706	0.57	0.57	0.577	0.994	0.606	0.682	0.533	1.3	0.588	0.555	0.536	0.558
NCI-H441	0.22	0.231	0.224	0.244	0.464	0.421	0.456	0.775	0.686	0.746	0.703	0.583	0.619	0.571	0.54	0.458	0.272	0.246	0.263	0.26
NCI-H2228	0.73	0.683	0.866	0.811	1.03	1.01	1.12	1.24	0.557	0.674	0.633	0.645	0.205	0.189	0.233	0.162	0.35	0.464	0.336	0.372
NCI-H1975	0.564	0.623	0.602	0.489	0.378	0.423	0.413	0.439	0.809	0.697	0.604	0.536	0.738	0.737	0.608	0.331	0.294	0.292	0.319	0.288
NCI-H650	0.363	0.299	0.342	0.334	1.03	0.701	0.935	0.701	0.527	0.46	0.516	0.457	0.704	0.759	0.67	0.702	0.962	0.782	0.954	0.978
A-427	0.497	0.522	0.486	0.535	0.938	0.963	0.965	0.956	0.46	0.487	0.49	0.466	0.223	0.226	0.208	0.206	0.952	0.927	1.08	0.927
LXF-289	0.616	0.581	0.657	0.588	0.987	0.997	0.966	0.994	0.827	0.864	0.815	0.793	0.127	0.26	0.206	0.201	0.917	0.889	0.895	0.993
NCI-H838	0.251	0.216	0.215	0.213	0.857	0.887	0.891	0.912	0.404	0.406	0.41	0.374	0.258	0.203	0.28	0.234	0.239	0.274	0.242	0.248
